For 19 molecules, Ki results are on record in EP2934149B1, “C6-AZASPIRO IMINOTHIADIAZINE DIOXIDES AS BACE INHIBITORS” (Merck Sharp & Dohme Corp., priority 2012, dated 2014).

The target in assay [1] is soluble human BACE1 catalytic domain (Homo sapiens, UniProt P56817). As to the kind of experiment: BACE1 HTRF FRET Assay. The note with it: Ki calculated from IC50 using the Cheng-Prusoff equation; QSY7-APPswe-Eu substrate 200 nM final, pH 5.0, 30° C. The class given is biochemical. The protocol:
A homogeneous time-resolved FRET assay can be used to determine IC50 values for inhibitors of the soluble human BACE1 catalytic domain. […] This substrate contains an N-terminal QSY7 moiety that serves as a quencher of the C-terminal Europium fluorophore (620nm Em). […] Inhibition of BACE1 cleavage of the QSY7-APP^swe-Eu substrate by inhibitors is manifested as a suppression of 620 nm fluorescence. […] The reactions are incubated at 30° C for 1.5 hours. The 620nm fluorescence is then read on a Rubystar HTRF plate reader (BMG Labtechnologies) using a 50 millisecond delay followed by a 400 millisecond acquisition time window. Inhibitor IC50 values are derived from non-linear regression analysis of concentration response curves.

The target in assay [2] is T1, purified human autoBACE-2 (Homo sapiens, UniProt Q9Y5Z0).
T1 sequence (Q9Y5Z0 63-473 limits assumed): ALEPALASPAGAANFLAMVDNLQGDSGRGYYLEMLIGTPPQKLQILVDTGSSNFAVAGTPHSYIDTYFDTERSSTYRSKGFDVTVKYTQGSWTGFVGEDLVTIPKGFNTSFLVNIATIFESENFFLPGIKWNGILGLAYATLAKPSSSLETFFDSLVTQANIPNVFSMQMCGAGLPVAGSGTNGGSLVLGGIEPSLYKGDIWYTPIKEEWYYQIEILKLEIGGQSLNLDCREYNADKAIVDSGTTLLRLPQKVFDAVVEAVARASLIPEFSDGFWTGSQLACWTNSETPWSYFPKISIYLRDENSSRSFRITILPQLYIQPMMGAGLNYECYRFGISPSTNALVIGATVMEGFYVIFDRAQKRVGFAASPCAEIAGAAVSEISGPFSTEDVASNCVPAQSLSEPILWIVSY
The assay is described as follows: BACE-2 Assay (BACE-HTRF assay). The class given is biochemical. To be noted: Ki calculated from IC50 using the Cheng-Prusoff equation; QSY7-EISEVNLDAEFC-Eu-amide substrate 200 nM final, pH 5.0, 30°C; read-out: BACE2 Ki. The method, then:
Inhibitor IC50's at purified human autoBACE-2 are determined in a time-resolved endpoint proteolysis assay that measures hydrolysis of the QSY7-[…]-Eu-amide FRET peptide substrate (BACE-HTRF assay). […] Inhibitor compounds, prepared at 3x the desired final concentration in 1x BACE assay buffer (20 mM sodium acetate pH 5.0,10% glycerol, 0.1% Brij-35) supplemented with 7.5% DMSO are pre-incubated with an equal volume of autoBACE-2 enzyme diluted in 1x BACE assay buffer (final enzyme concentration 1 nM) in black 384-well NUNC plates for 30 minutes at 30°C. […] DMSO is present at 5% final concentration in the assay. Following laser excitation of sample wells at 320 nm, the fluorescence signal at 620 nm is collected for 400 ms following a 50 µs delay on a RUBYstar HTRF plate reader (BMG Labtechnologies). Raw RFU data is normalized to maximum (1.0 nM BACE/DMSO) and minimum (no enzyme/DMSO) RFU values. […] The Ki values are calculated from the IC50 using the Cheng-Prusoff equation.

soluble human BACE1 catalytic domain, sequence (P56817 75-416 limits assumed): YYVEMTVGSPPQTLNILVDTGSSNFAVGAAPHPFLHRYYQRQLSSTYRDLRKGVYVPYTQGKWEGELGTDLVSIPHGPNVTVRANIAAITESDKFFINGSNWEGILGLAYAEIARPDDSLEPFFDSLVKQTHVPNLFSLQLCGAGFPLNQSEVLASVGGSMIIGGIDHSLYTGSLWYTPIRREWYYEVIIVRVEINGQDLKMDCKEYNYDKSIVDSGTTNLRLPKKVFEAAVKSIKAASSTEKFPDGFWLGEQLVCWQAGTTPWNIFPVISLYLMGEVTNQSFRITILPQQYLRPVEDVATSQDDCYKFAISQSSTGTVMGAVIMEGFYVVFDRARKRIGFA

Turning to `CN1C(=N)N[C@](C)(c2cc(NC(=O)c3ccc(F)cn3)ccc2F)C2(CCN(Cc3ccccc3)C2)S1(=O)=O` (some centres unmarked) [Example 1], the Ki in assay [1] is 3.4 nM; in assay [2], 4.5 nM.
On the same counts, the results for `CN1C(=N)N[C@](C)(c2cc(NC(=O)c3ccc(F)cn3)ccc2F)C2(CCNC2)S1(=O)=O` (some centres unmarked) [Example 2] are 19.5 nM and 30 nM.
`CN1C(=N)N[C@](C)(c2cc(NC(=O)c3ccc(F)cn3)ccc2F)C2(CCN(S(C)(=O)=O)C2)S1(=O)=O` (some centres unmarked) [Example 3]: the Ki in assay [1] was 5 nM; in assay [2], 9 nM.
For `CC(=O)N1CCC2(C1)[C@@](C)(c1cc(NC(=O)c3ccc(F)cn3)ccc1F)NC(=N)N(C)S2(=O)=O` (some centres unmarked) [Example 4], the Ki in assay [1] was 3.7 nM; in assay [2], 9 nM.
On the same counts, the results for `CN1C(=N)N[C@](C)(c2cc(NC(=O)c3ccc(F)cn3)ccc2F)C2(CCN(C(=O)C3CC3)C2)S1(=O)=O` (some centres unmarked) [Example 5] are 2 nM and 3.1 nM.
The matching figures for `CN1C(=N)N[C@](C)(c2cc(NC(=O)c3ccc(F)cn3)ccc2F)C2(CCN(C(=O)CC3CC3)C2)S1(=O)=O` (some centres unmarked) [Example 6]: 2.7 nM and 5.2 nM.
The matching figures for `CC(C)CC(=O)N1CCC2(C1)[C@@](C)(c1cc(NC(=O)c3ccc(F)cn3)ccc1F)NC(=N)N(C)S2(=O)=O` (some centres unmarked) [Example 7]: 2.8 nM and 5.7 nM.
Regarding `COc1ccc(C(=O)Nc2ccc(F)c([C@@]3(C)NC(=N)N(C)S(=O)(=O)[C@]34CCN(Cc3cocn3)C4)c2)nc1` [Example 18], the Ki in assay [1] is 47 nM; in assay [2] it was 158 nM.
The matching figures for `COc1ccc(C(=O)Nc2ccc(F)c([C@@]3(C)NC(=N)N(C)S(=O)(=O)[C@]34CCN(Cc3cscn3)C4)c2)nc1` [Example 19]: 20 nM and 70 nM.
On the same counts, the results for `COc1ccc(C(=O)Nc2ccc(F)c([C@@]3(C)NC(=N)N(C)S(=O)(=O)[C@]34CCN(CC3CCOC3)C4)c2)nc1` (some centres unmarked) [Example 20] are 51 nM and 188 nM.
On the same counts, the results for `COc1ccc(C(=O)Nc2ccc(F)c([C@@]3(C)NC(=N)N(C)S(=O)(=O)[C@]34CCN(CC3CC(OC)C3)C4)c2)nc1` (some centres unmarked) [Example 21] are 91 nM and 201 nM.
In the case of `COc1ccc(C(=O)Nc2ccc(F)c([C@@]3(C)NC(=N)N(C)S(=O)(=O)[C@]34CCN(Cc3ccccn3)C4)c2)nc1` [Example 22], the Ki in assay [1] was 26 nM; in assay [2], 79 nM.
The matching figures for `COc1ccc(C(=O)Nc2ccc(F)c([C@@]3(C)NC(=N)N(C)S(=O)(=O)[C@]34CCN(Cc3cccnc3)C4)c2)nc1` [Example 23]: 30 nM and 142 nM.
On the same counts, the results for `COc1ccc(C(=O)Nc2ccc(F)c([C@@]3(C)NC(=N)N(C)S(=O)(=O)[C@]34CCN(CC3CC3)C4)c2)nc1` [Example 24] are 34 nM and 128 nM.
With `COc1ccc(C(=O)Nc2ccc(F)c([C@@]3(C)NC(=N)N(C)S(=O)(=O)[C@]34CCN(Cc3cncnc3)C4)c2)nc1` [Example 26], the inhibition constant Ki in assay [1] is 51 nM; in assay [2] it was 329 nM.
The matching figures for `COc1ccc(C(=O)Nc2ccc(F)c([C@@]3(C)NC(=N)N(C)S(=O)(=O)[C@]34CCN(Cc3cnn(C)c3)C4)c2)nc1` [Example 27]: 54 nM and 388 nM.
On the same counts, the results for `COc1ccc(C(=O)Nc2ccc(F)c([C@@]3(C)NC(=N)N(C)S(=O)(=O)[C@]34CCN(Cc3cnco3)C4)c2)nc1` [Example 28] are 28 nM and 237 nM.
On the same counts, the results for `CN1C(=N)N[C@](C)(c2cc(NC(=O)c3ccc(F)cn3)ccc2F)[C@]2(CCN(Cc3ccccn3)C2)S1(=O)=O` [Example 41] are 3 nM and 6 nM.
In the case of `CN1C(=N)N[C@](C)(c2cc(NC(=O)c3ccc(F)cn3)ccc2F)[C@@]2(CCN(Cc3cscn3)C2)S1(=O)=O` [Example 42], the Ki in assay [1] is 32 nM; in assay [2], 25 nM.
